Reference: PubChem BioAssay AID1259407 (Chemical Carcinogenesis Research Information System (CCRIS), 2018)
Active and inactive are the calls of the source. No rule for the calls is given here.

System: CCRIS mutagenicity, Ames/micronucleus/aberration tests
Experiment: CCRIS mutagenicity studies
[1] = Test System: AMES SALMONELLA TYPHIMURIUM, Strain/Indicator: TA98, Metabolic Activation: NONE, Method: PREINCUBATION
[2] = Test System: AMES SALMONELLA TYPHIMURIUM, Strain/Indicator: TA100, Metabolic Activation: NONE, Method: PREINCUBATION
[3] = Test System: AMES SALMONELLA TYPHIMURIUM, Strain/Indicator: TA98, Metabolic Activation: NONE, Method: STANDARD PLATE
[4] = Test System: AMES SALMONELLA TYPHIMURIUM, Strain/Indicator: TA98, Metabolic Activation: RAT, LIVER, S-9, AROCLOR 1254, Method: STANDARD PLATE
[5] = Test System: AMES SALMONELLA TYPHIMURIUM, Strain/Indicator: TA100, Metabolic Activation: RAT, LIVER, S-9, AROCLOR 1254, Method: STANDARD PLATE
[6] = Test System: AMES SALMONELLA TYPHIMURIUM, Strain/Indicator: TA1535, Metabolic Activation: NONE, Method: STANDARD PLATE
[7] = Test System: AMES SALMONELLA TYPHIMURIUM, Strain/Indicator: TA1535, Metabolic Activation: RAT, LIVER, S-9, AROCLOR 1254, Method: STANDARD PLATE
[8] = Test System: AMES SALMONELLA TYPHIMURIUM, Strain/Indicator: TA1537, Metabolic Activation: NONE, Method: STANDARD PLATE
[9] = Test System: AMES SALMONELLA TYPHIMURIUM, Strain/Indicator: TA1537, Metabolic Activation: RAT, LIVER, S-9, AROCLOR 1254, Method: STANDARD PLATE
[10] = Test System: AMES SALMONELLA TYPHIMURIUM, Strain/Indicator: TA1538, Metabolic Activation: NONE, Method: STANDARD PLATE
[11] = Test System: AMES SALMONELLA TYPHIMURIUM, Strain/Indicator: TA1538, Metabolic Activation: RAT, LIVER, S-9, AROCLOR 1254, Method: STANDARD PLATE
[12] = Test System: AMES SALMONELLA TYPHIMURIUM, Strain/Indicator: TA98, Metabolic Activation: HAMSTER, LIVER, S-9, AROCLOR 1254 (10%), Method: PREINCUBATION
[13] = Test System: AMES SALMONELLA TYPHIMURIUM, Strain/Indicator: TA98, Metabolic Activation: RAT, LIVER, S-9, AROCLOR 1254 (10%), Method: PREINCUBATION
[14] = Test System: AMES SALMONELLA TYPHIMURIUM, Strain/Indicator: TA100, Metabolic Activation: HAMSTER, LIVER, S-9, AROCLOR 1254 (10%), Method: PREINCUBATION
[15] = Test System: AMES SALMONELLA TYPHIMURIUM, Strain/Indicator: TA100, Metabolic Activation: RAT, LIVER, S-9, AROCLOR 1254 (10%), Method: PREINCUBATION
[16] = Test System: AMES SALMONELLA TYPHIMURIUM, Strain/Indicator: TA1535, Metabolic Activation: HAMSTER, LIVER, S-9, AROCLOR 1254 (10%), Method: PREINCUBATION
[17] = Test System: AMES SALMONELLA TYPHIMURIUM, Strain/Indicator: TA1535, Metabolic Activation: NONE, Method: PREINCUBATION
[18] = Test System: AMES SALMONELLA TYPHIMURIUM, Strain/Indicator: TA1535, Metabolic Activation: RAT, LIVER, S-9, AROCLOR 1254 (10%), Method: PREINCUBATION
[19] = Test System: AMES SALMONELLA TYPHIMURIUM, Strain/Indicator: TA1537, Metabolic Activation: HAMSTER, LIVER, S-9, AROCLOR 1254 (10%), Method: PREINCUBATION
[20] = Test System: AMES SALMONELLA TYPHIMURIUM, Strain/Indicator: TA1537, Metabolic Activation: NONE, Method: PREINCUBATION
[21] = Test System: AMES SALMONELLA TYPHIMURIUM, Strain/Indicator: TA1537, Metabolic Activation: RAT, LIVER, S-9, AROCLOR 1254 (10%), Method: PREINCUBATION
[22] = Test System: AMES SALMONELLA TYPHIMURIUM, Strain/Indicator: TA98, Metabolic Activation: RAT, LIVER, S-9, PCB, Method: PREINCUBATION
[23] = Test System: AMES SALMONELLA TYPHIMURIUM, Strain/Indicator: TA100, Metabolic Activation: RAT, LIVER, S-9, PCB, Method: PREINCUBATION

Question: Which mutagenic call [1] does the source give for `O=C(Cl)c1cccc(Cl)c1` here?
Answer: Its mutagenic call is “inactive; negative”.

Question: And the mutagenic call (Test System: AMES SALMONELLA TYPHIMURIUM, Strain/Indicator: TA98, Metabolic Activation: RAT LIVER S-9, PCB, Method: PREINCUBATION)?
Answer: The mutagenic call was “active; positive”.

Question: What about the mutagenic call [2] of the same molecule?
Answer: The mutagenic call was “inactive; negative”.

Question: And the mutagenic call (Test System: AMES SALMONELLA TYPHIMURIUM, Strain/Indicator: TA100, Metabolic Activation: RAT LIVER S-9, PCB, Method: PREINCUBATION)?
Answer: The mutagenic call was “active; positive”.

Question: What about the mutagenic call (Test System: AMES SALMONELLA TYPHIMURIUM, Strain/Indicator: TA104, Metabolic Activation: NONE, Method: PREINCUBATION) of the same molecule?
Answer: The mutagenic call was “inactive; negative”.

Question: And the mutagenic call (Test System: AMES SALMONELLA TYPHIMURIUM, Strain/Indicator: TA104, Metabolic Activation: RAT LIVER S-9, PCB, Method: PREINCUBATION)?
Answer: Its mutagenic call is “active; positive”.

Question: What about the mutagenic call (Test System: E.COLI, Strain/Indicator: WP2 UVRA, Metabolic Activation: NONE, Method: PREINCUBATION) of the same molecule?
Answer: Its mutagenic call is “inactive; negative”.

Question: What about the mutagenic call (Test System: E.COLI, Strain/Indicator: WP2 UVRA, Metabolic Activation: RAT LIVER S-9, PCB, Method: PREINCUBATION) of the same molecule?
Answer: The mutagenic call was “active; positive”.

Question: For `Cc1ccc2c(c1Nc1ccccc1)C(=O)c1ccccc1C2=O`, which mutagenic call [3] is on record?
Answer: Its mutagenic call is “inactive; negative”.

Question: And the mutagenic call [4]?
Answer: Its mutagenic call is “inactive; negative”.

Question: And the mutagenic call [5]?
Answer: The mutagenic call was “active; positive”.

Question: What about the mutagenic call [6] of the same molecule?
Answer: The mutagenic call was “inactive; negative”.

Question: What about the mutagenic call [7] of the same molecule?
Answer: The mutagenic call was “inactive; negative”.

Question: What about the mutagenic call [8] of the same molecule?
Answer: Its mutagenic call is “inactive; negative”.

Question: And the mutagenic call [9]?
Answer: Its mutagenic call is “inactive; negative”.

Question: What about the mutagenic call [10] of the same molecule?
Answer: The mutagenic call was “inactive; negative”.

Question: And the mutagenic call [11]?
Answer: Its mutagenic call is “inactive; negative”.

Question: How did the mutagenic call [12] turn out when `COC(C)(C)CC(C)=O` was run?
Answer: The mutagenic call was “inactive; negative”.

Question: What about the mutagenic call [1] of the same molecule?
Answer: Its mutagenic call is “inactive; negative”.

Question: And the mutagenic call [13]?
Answer: Its mutagenic call is “inactive; negative”.

Question: And the mutagenic call [14]?
Answer: Its mutagenic call is “inactive; negative”.

Question: And the mutagenic call [2]?
Answer: The mutagenic call was “inactive; negative”.

Question: And the mutagenic call [15]?
Answer: Its mutagenic call is “inactive; negative”.

Question: What about the mutagenic call [16] of the same molecule?
Answer: The mutagenic call was “inactive; negative”.

Question: And the mutagenic call [17]?
Answer: The mutagenic call was “inactive; negative”.

Question: And the mutagenic call [18]?
Answer: The mutagenic call was “inactive; negative”.

Question: And the mutagenic call [19]?
Answer: The mutagenic call was “inactive; negative”.

Question: What about the mutagenic call [20] of the same molecule?
Answer: Its mutagenic call is “inactive; negative”.

Question: What about the mutagenic call [21] of the same molecule?
Answer: Its mutagenic call is “inactive; negative”.

Question: With `CC(C)(C)N(CCO)CCO` as the molecule, how does the mutagenic call [3] read?
Answer: The mutagenic call was “inactive; negative”.

Question: And the mutagenic call [4]?
Answer: Its mutagenic call is “inactive; negative”.

Question: What about the mutagenic call (Test System: AMES SALMONELLA TYPHIMURIUM, Strain/Indicator: TA100, Metabolic Activation: NONE, Method: STANDARD PLATE) of the same molecule?
Answer: The mutagenic call was “inactive; negative”.

Question: What about the mutagenic call [5] of the same molecule?
Answer: The mutagenic call was “inactive; negative”.

Question: What about the mutagenic call [6] of the same molecule?
Answer: The mutagenic call was “inactive; negative”.

Question: What about the mutagenic call [7] of the same molecule?
Answer: Its mutagenic call is “inactive; negative”.

Question: What about the mutagenic call [8] of the same molecule?
Answer: Its mutagenic call is “inactive; negative”.

Question: What about the mutagenic call [9] of the same molecule?
Answer: Its mutagenic call is “inactive; negative”.

Question: And the mutagenic call [10]?
Answer: The mutagenic call was “inactive; negative”.

Question: And the mutagenic call [11]?
Answer: The mutagenic call was “inactive; negative”.

Question: And the mutagenic call (Test System: CHINESE HAMSTER OVARY, Strain/Indicator: CHO-K1-BH4, Metabolic Activation: NONE)?
Answer: The mutagenic call was “inactive; negative”.

Question: What about the mutagenic call (Test System: CHINESE HAMSTER OVARY, Strain/Indicator: CHO-K1-BH4, Metabolic Activation: RAT, LIVER, S-9, AROCLOR 1254) of the same molecule?
Answer: Its mutagenic call is “inactive; negative”.

Question: For `N#CCCC(=O)CCc1ccc(C(=O)O)cc1`, which mutagenic call [1] is on record?
Answer: The mutagenic call was “active; positive”.

Question: What about the mutagenic call [22] of the same molecule?
Answer: The mutagenic call was “inactive; negative”.

Question: What about the mutagenic call [2] of the same molecule?
Answer: The mutagenic call was “inactive; negative”.

Question: And the mutagenic call [23]?
Answer: The mutagenic call was “inactive; negative”.

Question: With `Cc1ccc2c(c1)C(=O)c1cc(O)ccc1C2=O` as the molecule, how does the mutagenic call [1] read?
Answer: The mutagenic call was “inactive; negative”.

Question: What about the mutagenic call [22] of the same molecule?
Answer: The mutagenic call was “active; positive”.

Question: And the mutagenic call [2]?
Answer: Its mutagenic call is “active; positive”.

Question: And the mutagenic call [23]?
Answer: Its mutagenic call is “active; positive”.

Question: What does the source list for `CC(C)CC(=O)CC(C)C`?
Answer: mutagenic call [12]: inactive; negative; mutagenic call [1]: inactive; negative; mutagenic call [13]: inactive; negative; mutagenic call [14]: inactive; negative; mutagenic call [2]: inactive; negative; mutagenic call [15]: inactive; negative; mutagenic call [16]: inactive; negative; mutagenic call (Test System: AMES SALMONELLA TYPHIMURIUM, Strain/Indicator: TA1535, Metabolic Activation: HAMSTER, LIVER, S-9, AROCLOR 1254 (50%), Method: PREINCUBATION): inactive; negative; mutagenic call [17]: inactive; negative; mutagenic call [18]: inactive; negative; mutagenic call (Test System: AMES SALMONELLA TYPHIMURIUM, Strain/Indicator: TA1535, Metabolic Activation: RAT, LIVER, S-9, AROCLOR 1254 (50%), Method: PREINCUBATION): inactive; negative; mutagenic call [19]: inactive; negative; mutagenic call (Test System: AMES SALMONELLA TYPHIMURIUM, Strain/Indicator: TA1537, Metabolic Activation: HAMSTER, LIVER, S-9, AROCLOR 1254 (50%), Method: PREINCUBATION): inactive; negative; mutagenic call [20]: inactive; negative; mutagenic call [21]: inactive; negative; mutagenic call (Test System: AMES SALMONELLA TYPHIMURIUM, Strain/Indicator: TA1537, Metabolic Activation: RAT, LIVER, S-9, AROCLOR 1254 (50%), Method: PREINCUBATION): inactive; negative

Question: `Cc1ccc2nc3ccc(C)cc3c(N)c2c1` was tested. Which mutagenic call [20] did it give?
Answer: Its mutagenic call is “active; positive”.
